Test system: CD34+ cells from peripheral blood
Experiment: AMPLIFICATION PROTOCOL: ex vivo amplification of hematopoietic progenitors
Assay type: cell-based, human
Settings: 10 μM; for effect on the proportion and total amount of CD34+CD133neg cells: FIG. 2
Experimental: This is a strategy for the amplification of hematopoietic progenitors. The culture is formed as follows: CD34^+ cells from peripheral blood are isolated (as indicated in section II.A.1), and cultured for 12 days in Stem Span II medium (Stem Cell Technologies) supplemented with cytokines: SCF 100 ng/mL, FLT3-L 100 ng/mL, TPO 20 ng/mL, G-CSF 10 ng/mL. The amplification product is analyzed by quantification of proliferation (count on Malassez slides) and phenotypic analysis of CD34^+ cell subpopulations by flow cytometry. […] Vitisin B is also compared with the following stilbene-type molecules at 10 μM concentration: Resveratrol, Pallidol, E-Viniferin, Ampelopsin, Oxyresveratrol, Picateatannol, Gnetol
At the end of the hematopoietic cell amplification protocol, an analysis of cell proliferation and amplification of immature and committed cell populations is performed.
Cell proliferation is evaluated by counting cells on Malassez slides with Trypan blue exclusion of dead cells.
The amplification of cell populations is based on a phenotypic analysis relating to the evolution of the expression of membrane markers CD34 and CD133 by flow cytometry. These markers make it possible to define more or less immature cell populations organized hierarchically as follows: CD34^+CD133^+->CD34^+CD133^neg->CD34^negCD133^neg. To this end, cells are incubated with anti-CD34 (1:100,000) (BD Pharmingen) and anti-CD133 (1:100,000) (BD Pharmingen) antibodies for 15 minutes. The cells are then rinsed with a PBS solution and centrifuged (430×g, 10 min, 4° C.). After resuspension of the cell pellets in PBS, the cells are analyzed by flow cytometry (FACSCantoll, Becton Dickinson, San Jose, CA).
The proportions of each phenotypic population thus observed and the total amount of cells make it possible to calculate the rate of amplification of the most immature cells (CD34^+CD133+) compared with the amplification of more committed progenitors (CD34^+CD133^neg and CD34^negCD133^neg).

SMILES | amplification of the CD34+CD133neg subpopulation (erythrocyte potential) (FIG. 1) | effect on the proportion and total amount of CD34+CD133neg cells
Oc1ccc(C=Cc2cc(O)cc(O)c2)cc1 [RESVERATROL, Resveratrol] | no effect | only vitisin B has a convincing effect
O=C1c2c(O)cc(O)cc2O[C@H](c2cc(O)c(O)c(O)c2)[C@H]1O [AMPELOPSIN, Ampelopsin] | – | only vitisin B has a convincing effect
Oc1cc(O)cc(/C=C/c2ccc(O)cc2O)c1 [OXYRESVERATROL, Oxyresveratrol] | – | only vitisin B has a convincing effect
Oc1ccc(/C=C/c2cc(O)cc3c2[C@@H](c2cc(O)cc(O)c2)[C@H](c2ccc(O)cc2)O3)cc1 [E-VINIFERIN, E-Viniferin] | – | only vitisin B has a convincing effect
Oc1cc(O)cc(/C=C/c2c(O)cccc2O)c1 [GNETOL, Gnetol] | – | only vitisin B has a convincing effect

— patent US20260265694A1, “USE OF A VITISIN COMPOUND FOR THE PRODUCTION OF HEMATOPOIETIC CELLS” (ETABLISSEMENT FRANCAIS DU SANG, priority 2022, published 2026)
